From US20260347280A1, “DEUTERATED HINOKITIOL DERIVATIVES” (priority 2022, published 2026)
“Also recorded” adds a separate entry of the source. Each block holds one compound with its values, some of them ahead of it.

Tests used:
[1] = Dynamic light scattering (aggregation); format: physicochemical; details: for aggregation tendency: aqueous media, in words
Experimental: Dynamic light scattering was performed on a Malvern Zetasizer Nano using disposable cuvettes. […] Compound at the specified concentration (from 1000× in DMSO), as well as equimolar FeCl3 (1000× in 0.1 M HCl) were added to this buffer. After addition, these compounds were vortexed for 30 sec, sonicated for one min, then further vortexed for 30 sec before a five-minute equilibration in the Zetasizer at 37 °C. All standard parameters were used, with each graph representing a minimum of thirty 10 second measurements. For count rate analysis, the raw count rate was utilized, accounting for any differences in attenuator position between samples.

[2] = background; cited from earlier work
[3] = Complex formation with iron / crystallographic data; format: physicochemical
[4] = test system: ferroportin 1 (FPN1−) deficient cells and animals; details: cited from earlier work
[5] = test system: mitoferrin 1 (MFRN1−) deficient cells and animals; details: cited from earlier work
[6] = test system: divalent metal transporter 1 (DMT1−) deficient cells and animals; details: cited from earlier work
[7] = Liposome efflux assay (Fe3+ liposomal efflux, cell-free iron efflux); format: biochemical; details: for iron transport capability at higher concentrations: Fe3+ liposomal efflux, 50-150 μM, compared with hinokitiol or Tri-Methyl; for iron mobilization capacity / cell-free iron transport, effect of deuteration: deuterated vs protio compound, cell-free iron efflux, 37 °C, 40 min
Experimental: After evaporation under a stream of nitrogen, films were placed under hi-vacuum for 18 hours to ensure quantitative solvent removal. […] LUVs were subjected to size exclusion chromatography, using a ~20 cm column of Sephadex® G-50 Medium resin that was hydrated in liposome outside buffer (600 mM sodium ascorbate, 50 mM MES/TRIS pH 7.0).
Determination of total phosphorous was performed utilizing the Bartlett Assay. Briefly, the LUV suspension was diluted 10-fold in liposome outside buffer, then 10 μL of this solution was placed in three 7 mL vials along with 10 μL of liposome outside buffer for background. […] The samples were then allowed to fully cool and diluted using 3.9 mL of Milli-Q water. […] of 2.5% w/v ammonium molybdate was then added, then the samples were vortexed, then […] of 10% w/v ascorbic acid was added. The samples were then re-vortexed, capped, and heated at 100 °C for seven minutes. The samples were allowed to fully cool then read at A820 and compared to a phosphorous standard curve to determine the total quantity of phosphorous.
16 mL of liposome suspension was created with the following components: […] of ferrozine solution (100× stock, 50 mM in liposome outside buffer), LUV suspension (to a final concentration of 1 mM phosphorous), and liposome outside buffer up to 16 mL. […] of liposome suspension was then added to a 96 well plate (NUM) using a multichannel pipettor. The plate was then placed in a plate reader and equilibrated at 37 °C for 5 minutes, then read for a baseline measurement. Following this equilibration, compound was added at the designated concentrations (40× stock in DMSO) using a multichannel pipettor, and the plate was then incubated at 37 °C for 40 min. Reads were taken every minute at A562 and the plate mixed at 220 rpm. Total iron efflux was determined via […]-iron complex signal. These experiments were performed in triplicate, with a minimum of two biological replicates.

shDMT1-Caco-2 monolayer = experiment: Iron transport in differentiated shDMT1(-Caco-2) monolayers; format: cell-based
[8] = compared with hinokitiol; cited from earlier work

aggregation tendency [1]: aggregates less
Compound: Cc1cc(C)c(O)c(=O)c(C)c1 [Tri-Methyl]

complex formation with Fe(III) [3]: forms a 3:1 complex with Fe(III)
aggregation tendency ([1]; listed as Hinokitiol): highly aggregative
Compound: CC(C)c1cccc(=O)c(O)c1 [hinokitiol]
complex formation with iron [2]: reversibly forming a 3:1 complex with iron
aggregation tendency [1]: predisposed at higher concentrations to form higher-order aggregates; also recorded: formation of higher-order aggregates in aqueous media
restoration of iron homeostasis [4]: restores iron homeostasis
restoration of iron homeostasis [5]: restores iron homeostasis
restoration of iron homeostasis [6]: restores iron homeostasis
iron transport capability at higher concentrations [7]: begins to aggregate
iron transport / mobilization (shDMT1-Caco-2 monolayer): effectively mobilizes iron at low-to-intermediate concentrations; also recorded: at higher concentrations, a substantial decrease in transmembrane mobilizing activity was observed

Compound: [2H]C([2H])([2H])C([2H])([2H])C([2H])([2H])C([2H])([2H])c1cccc(=O)c(O)c1 [4 nBu-d9, 2-hydroxy-4-(butyl-d9)cyclohepta-2,4,6-trien-1-one]
iron mobilization capacity / cell-free iron transport, effect of deuteration [7]: maintains transport levels at concentrations when the parent compound suffers from limiting higher order aggregation
iron mobilization capacity / cell-free iron transport, effect of deuteration ([7]; listed as 4-n-buytl-(d9)-tropolone): extends transport window
concentration of compound up to which noticeable transmembrane transport of iron is demonstrated ([7]; liposome efflux assay, before dropping to baseline): 75 µM

aggregation tendency [1]: highly aggregating
Compound: CCCCc1cccc(=O)c(O)c1 [4 nBu, 2-hydroxy-4-butylcyclohepta-2,4,6-trien-1-one]
concentration of compound at which noticeable transport ceases ([7]; liposome efflux assay, due to higher order aggregation): 40 µM

Compound: [2H]C([2H])([2H])C([2H])(c1cccc(=O)c(O)c1)C([2H])([2H])[2H] [hinokitiol-d7, 2-hydroxy-4-(isopropyl-d7)-cyclohepta-2,4,6-trien-1-one]
aggregation by dynamic light scattering ([1]; 20-100 μM with equimolar iron, pH 7.0, 37 °C): aggregates less via lesser photon deflection counts and particle size
iron transport capability at higher concentrations [7]: significantly greater iron transport capability at higher concentrations (50-150 μM) when compared to hinokitiol

Compound: CC(C)c1ccc(O)c(=O)cc1 [GT]
aggregation, previously shown [8]: less aggregation
iron mobilization capacity / cell-free iron transport, effect of deuteration [7]: no deuteration effect on cell-free iron transport
